Measured values taken from ChEMBL document CHEMBL3091426, “Synthesis and antitumor-evaluation of 1,3-selenazole-containing 1,3,4-thiadiazole derivatives” (Bioorg Med Chem Lett, 2013).

Tests used:
MCF7 = assay: Antiproliferative activity against human MCF7 cells by CCK-8 assay; type: functional, cell-based
L1210 = assay: Antiproliferative activity against mouse L1210 cells by CCK-8 assay; type: functional, cell-based

SMILES	IC50 (MCF7)	IC50 (L1210)
C(=N\c1nnc(SCc2c[se]c(-c3ccccc3)n2)s1)/c1ccccc1	25.6 µM	46.5 µM
Oc1ccccc1/C=N/c1nnc(SCc2c[se]c(-c3ccccc3)n2)s1	15.2 µM	38.7 µM
CN(C)c1ccc(/C=N/c2nnc(SCc3c[se]c(-c4ccccc4)n3)s2)cc1	80.3 µM	> 100 µM
O=C(O)c1c[se]c(-c2ccccc2)n1	16.6 µM	60.1 µM
O=[N+]([O-])c1ccc(/C=N/c2nnc(SCc3c[se]c(-c4ccccc4)n3)s2)cc1	49.1 µM	> 100 µM
Oc1ccc(/C=N/c2nnc(SCc3c[se]c(-c4ccccc4)n3)s2)cc1	31.1 µM	> 100 µM

More lines, in order of falling IC50 (MCF7), values ahead:

IC50 (MCF7)	IC50 (L1210)	SMILES
15 µM	> 100 µM	COc1cc(/C=N/c2nnc(SCc3c[se]c(-c4ccccc4)n3)s2)ccc1O
14.8 µM	46.5 µM	Brc1ccc(/C=N/c2nnc(SCc3c[se]c(-c4ccccc4)n3)s2)cc1
10.2 µM	56.9 µM	Fc1ccc(/C=N/c2nnc(SCc3c[se]c(-c4ccccc4)n3)s2)cc1
8.51 µM	62.2 µM	Oc1ccc(/C=N/c2nnc(SCc3c[se]c(-c4ccccc4)n3)s2)c(O)c1
7.55 µM	58.6 µM	Cc1ccc(/C=N/c2nnc(SCc3c[se]c(-c4ccccc4)n3)s2)cc1
4.02 µM	50 µM	Clc1ccc(/C=N/c2nnc(SCc3c[se]c(-c4ccccc4)n3)s2)cc1
